How the values were obtained:
[1] = system: NET xenografts (STC-1, PC12, COLO-320); test: Ex vivo biodistribution, across all NET mouse models; format: in vivo, mice; details: for brain accumulation, average in all NET mice: average over STC-1, COLO-320 and PC12 mice; for retention in small intestines, fold lower than L-[^18F]FDOPA: all NET models
Description: (§1) All animal studies were carried out according to regulations set forth and approved by the Johns Hopkins Animal Care and Use Committee. Female, 6- to 8-weeks-old immunodeficient NOD scid gamma (NSG) mice were subcutaneously inoculated with 1 million PC12, STC-1 or COLO-320 cells in […] of Hank’s balanced salt solution in the top flank. Tumors of 4–6 mm in diameter (typically 14-21 days post inoculation) were utilized for in vivo imaging or ex vivo biodistribution studies.
(§2) Mice (n=5 per group) were intravenously injected with 1.5MBq (40μCi) of each tracer in 150μL of saline. Ex vivo biodistribution studies were performed at 30min and 120min time points after tracer administration. Blood, liver, spleen, heart, lungs, kidneys, small intestines, stomach, muscle, fat, bone, bladder, brain and tumor tissues were retrieved, weighed, and counted in an automated gamma counter (1282 Compugamma CS). Percentage injected dose per gram (%ID/g) values were calculated based on normalization to external standards, counted in triplicate, and accounted for signal-decay correction.

PC12 xenografts [2] = test: In vivo PET-CT quantitative image analysis, PC12 xenografts; details: PC12 tumors, NSG mice, 9MBq
Description: as §1
(§3) Mice (n=4) were injected with 9MBq (250μCi) of each tracer in 150μL of saline intravenously and anesthetized with 3% isoflurane prior to being placed on the scanner bed. Mice were kept warm with an external light source and maintained at 1% isoflurane levels while being scanned. PET imaging (2 beds; 10 min per bed) was carried out using an ARGUS small-animal PET/CT scanner (Sedecal). A CT scan (512 projections) was obtained at the end of each PET scan for anatomical co-registration. For in vivo blocking experiments, mice were injected with 10meq of LAT1 inhibitor. PET data were reconstructed using the 2-dimensional ordered subsets-expectation maximization algorithm (2D-OSEM) and corrected for dead time and radioactive decay. Data visualization and image generation were carried out using Amira 2019.1 (ThermoFisher Scientific).
(§4) Quantitative in vivo image analysis was carried out in AMIDE (SourceForge) 1.0.4 utilizing ellipsoid region-of-interest volume integrations with 3 slices entailing a depth of 1.9 mm per slice. The %ID per cc values were calculated based on a calibration factor obtained from a phantom (known radioactive quantity in a known volume).

PC12 xenografts [3] = test: Ex vivo biodistribution in NSG mice bearing PC12 xenografts; details: for Biodistribution, Bladder / Biodistribution, Blood / Biodistribution, Bone / Biodistribution, Brain / Biodistribution, Fat / Biodistribution, Heart / Biodistribution, Kidneys / Biodistribution, Liver / Biodistribution, Lungs / Biodistribution, Muscle / Biodistribution, Pancreas / Biodistribution, Small Intestines / Biodistribution, Spleen / Biodistribution, Stomach / Biodistribution, Tumor: PC12 xenograft NSG mice, 1.5MBq i.v.
Description: as §1, §2

COLO-320 xenografts [4] = test: In vivo PET-CT quantitative image analysis, COLO-320 xenografts; details: COLO-320 tumors, NSG mice, 9MBq
Description: as §1, §3, §4

TGP52 cells = test: In vitro uptake (binding) assay in TGP52 cells; format: cell-based; details: 30mins incubation, 1 million cells, % incubated dose/million cells
Description: (§5) Both [^18F]FDOPA enantiomers were initially assessed in vitro in all NET cells.
(§6) In vitro binding assays were carried out, in triplicate, in PBS with 0.5% FBS, for 30mins at ambient temperatures using 1 million cells and repeated three times. Blocking studies were carried out using 10meq of the commercial LAT1 inhibitor, 2-Aminobicyclo[2.2.1]heptane-2-carboxylic acid (TOCRIS, MN, USA). Following incubation with each tracer, cells were rinsed three times with cold PBS prior to being counted on an automated gamma counter (1282 Compugamma CS; Pharmacia/LKBNuclear, Inc.) along with external standards. Obtained counts were converted into percentage incubated dose per million cells based on normalization to external standards. Experiments were performed in triplicate and repeated three times.

STC-1 xenografts = test: In vivo PET-CT quantitative image analysis, STC-1 xenografts; details: STC-1 tumors, NSG mice, 9MBq
Description: as §1, §3, §4

COLO-320 xenografts [5] = test: Ex vivo biodistribution in NSG mice bearing COLO-320 xenografts; details: for Biodistribution, Bladder / Biodistribution, Blood / Biodistribution, Bone / Biodistribution, Brain / Biodistribution, Fat / Biodistribution, Heart / Biodistribution, Kidneys / Biodistribution, Liver / Biodistribution, Lungs / Biodistribution, Muscle / Biodistribution, Pancreas / Biodistribution, Small Intestines / Biodistribution, Spleen / Biodistribution, Stomach / Biodistribution, Tumor: COLO-320 xenograft NSG mice, 1.5MBq i.v.
Description: as §1, §2

LAT1 = test: In vivo PET-CT blocking by BCH in NET mouse models; design: species or system mice; details: all NET mouse models (PC12, STC-1, COLO-320), 10meq LAT1 inhibitor
Description: as §3, §4

PC12 cells = test: In vitro uptake (binding) assay in PC12 cells; format: cell-based; details: 30mins incubation, 1 million cells
Description: as §5, §6

TGP61 cells = test: In vitro uptake (binding) assay in TGP61 cells; format: cell-based; details: 30mins incubation, 1 million cells, % incubated dose/million cells
Description: as §5, §6

Compound: N[C@H](Cc1cc(O)c(O)cc1[18F])C(=O)O [D-[^18F]FDOPA, 3,4-dihydroxy-6-[^18F]fluoro-D-phenylalanine]
- brain accumulation, average in all NET mice ([1]; 30min p.i.): 0.31±0.05 %ID/g
- brain accumulation, average in all NET mice ([1]; 120min p.i.): 0.34±0.08 %ID/g
- hepatic retention, fold lower than L-[^18F]FDOPA ([1]; NET models): up to 4 fold
- renal retention, fold lower than L-[^18F]FDOPA ([1]; NET models): up to 4 fold
- retention in small intestines, fold lower than L-[^18F]FDOPA ([1]; 30min): up to 4 fold
- retention in small intestines, fold lower than L-[^18F]FDOPA ([1]; 120min p.i.): up to 7 fold
- tumor uptake, quantitative PET image analysis (PC12 xenografts [2]; 30min post i.v. injection): 8.87±0.31 %ID/cc
- tumor uptake, quantitative PET image analysis (PC12 xenografts [2]; 120min post i.v. injection): 3.96±0.34 %ID/cc
- pancreatic retention, fold lower compared to L-[^18F]FDOPA (PC12 xenografts [3]; PC12 mice, 120min p.i.): ~11 fold
- Biodistribution, Bladder (PC12 xenografts [3]; 30min p.i.): 3.96 %ID/g
- Biodistribution, Blood (PC12 xenografts [3]; 30min p.i.): 2.52 %ID/g
- Biodistribution, Bone (PC12 xenografts [3]; 30min p.i.): 2.71 %ID/g
- Biodistribution, Brain (PC12 xenografts [3]; 30min p.i.): 0.19 %ID/g
- Biodistribution, Fat (PC12 xenografts [3]; 30min p.i.): 0.28 %ID/g
- Biodistribution, Heart (PC12 xenografts [3]; 30min p.i.): 1.28 %ID/g
- Biodistribution, Kidneys (PC12 xenografts [3]; 30min p.i.): 5.30 %ID/g
- Biodistribution, Liver (PC12 xenografts [3]; 30min p.i.): 3.05 %ID/g
- Biodistribution, Lungs (PC12 xenografts [3]; 30min p.i.): 3.53 %ID/g
- Biodistribution, Muscle (PC12 xenografts [3]; 30min p.i.): 0.79 %ID/g
- Biodistribution, Pancreas (PC12 xenografts [3]; 30min p.i.): 28.22 %ID/g
- Biodistribution, Small Intestines (PC12 xenografts [3]; 30min p.i.): 3.76 %ID/g
- Biodistribution, Spleen (PC12 xenografts [3]; 30min p.i.): 3.99 %ID/g
- Biodistribution, Stomach (PC12 xenografts [3]; 30min p.i.): 2.52 %ID/g
- Biodistribution, Tumor (PC12 xenografts [3]; 30min p.i.): 2.96 %ID/g
- Biodistribution, Bladder (PC12 xenografts [3]; 120min p.i.): 5.93 %ID/g
- Biodistribution, Blood (PC12 xenografts [3]; 120min p.i.): 0.48 %ID/g
- Biodistribution, Bone (PC12 xenografts [3]; 120min p.i.): 4.84 %ID/g
- Biodistribution, Brain (PC12 xenografts [3]; 120min p.i.): 0.23 %ID/g
- Biodistribution, Fat (PC12 xenografts [3]; 120min p.i.): 0.34 %ID/g
- Biodistribution, Heart (PC12 xenografts [3]; 120min p.i.): 0.84 %ID/g
- Biodistribution, Kidneys (PC12 xenografts [3]; 120min p.i.): 1.23 %ID/g
- Biodistribution, Liver (PC12 xenografts [3]; 120min p.i.): 0.73 %ID/g
- Biodistribution, Lungs (PC12 xenografts [3]; 120min p.i.): 2.04 %ID/g
- Biodistribution, Muscle (PC12 xenografts [3]; 120min p.i.): 1.02 %ID/g
- Biodistribution, Pancreas (PC12 xenografts [3]; 120min p.i.): 3.42 %ID/g
- Biodistribution, Small Intestines (PC12 xenografts [3]; 120min p.i.): 1.90 %ID/g
- Biodistribution, Spleen (PC12 xenografts [3]; 120min p.i.): 1.86 %ID/g
- Biodistribution, Stomach (PC12 xenografts [3]; 120min p.i.): 1.36 %ID/g
- Biodistribution, Tumor (PC12 xenografts [3]; 120min p.i.): 1.44 %ID/g
- tumor uptake, quantitative PET image analysis (COLO-320 xenografts [4]; 30min post i.v. injection): 7.20±0.35 %ID/cc
- tumor uptake, quantitative PET image analysis (COLO-320 xenografts [4]; 120min post i.v. injection): 6.93±0.80 %ID/cc
- in vitro uptake (TGP52 cells): 3.18±0.19%
- tumor uptake, quantitative PET image analysis (STC-1 xenografts; 30min post i.v. injection): 12.01±1.61 %ID/cc
- tumor uptake, quantitative PET image analysis (STC-1 xenografts; 120min post i.v. injection): 3.34±0.32 %ID/cc
- pancreatic retention, fold lower compared to L-[^18F]FDOPA (COLO-320 xenografts [5]; COLO-320 mice, 120min p.i.): 12 fold
- Biodistribution, Bladder (COLO-320 xenografts [5]; 30min p.i.): 3.81 %ID/g
- Biodistribution, Blood (COLO-320 xenografts [5]; 30min p.i.): 2.58 %ID/g
- Biodistribution, Bone (COLO-320 xenografts [5]; 30min p.i.): 3.28 %ID/g
- Biodistribution, Brain (COLO-320 xenografts [5]; 30min p.i.): 0.19 %ID/g
- Biodistribution, Fat (COLO-320 xenografts [5]; 30min p.i.): 0.31 %ID/g
- Biodistribution, Heart (COLO-320 xenografts [5]; 30min p.i.): 1.57 %ID/g
- Biodistribution, Kidneys (COLO-320 xenografts [5]; 30min p.i.): 7.05 %ID/g
- Biodistribution, Liver (COLO-320 xenografts [5]; 30min p.i.): 2.65 %ID/g
- Biodistribution, Lungs (COLO-320 xenografts [5]; 30min p.i.): 3.60 %ID/g
- Biodistribution, Muscle (COLO-320 xenografts [5]; 30min p.i.): 0.89 %ID/g
- Biodistribution, Pancreas (COLO-320 xenografts [5]; 30min p.i.): 34.93 %ID/g
- Biodistribution, Small Intestines (COLO-320 xenografts [5]; 30min p.i.): 3.89 %ID/g
- Biodistribution, Spleen (COLO-320 xenografts [5]; 30min p.i.): 4.77 %ID/g
- Biodistribution, Stomach (COLO-320 xenografts [5]; 30min p.i.): 2.48 %ID/g
- Biodistribution, Tumor (COLO-320 xenografts [5]; 30min p.i.): 3.61 %ID/g
- Biodistribution, Bladder (COLO-320 xenografts [5]; 120min p.i.): 3.68 %ID/g
- Biodistribution, Blood (COLO-320 xenografts [5]; 120min p.i.): 0.51 %ID/g
- Biodistribution, Bone (COLO-320 xenografts [5]; 120min p.i.): 4.10 %ID/g
- Biodistribution, Brain (COLO-320 xenografts [5]; 120min p.i.): 0.19 %ID/g
- Biodistribution, Fat (COLO-320 xenografts [5]; 120min p.i.): 0.29 %ID/g
- Biodistribution, Heart (COLO-320 xenografts [5]; 120min p.i.): 0.80 %ID/g
- Biodistribution, Kidneys (COLO-320 xenografts [5]; 120min p.i.): 1.44 %ID/g
- Biodistribution, Liver (COLO-320 xenografts [5]; 120min p.i.): 0.54 %ID/g
- Biodistribution, Lungs (COLO-320 xenografts [5]; 120min p.i.): 1.52 %ID/g
- Biodistribution, Muscle (COLO-320 xenografts [5]; 120min p.i.): 1.12 %ID/g
- Biodistribution, Pancreas (COLO-320 xenografts [5]; 120min p.i.): 3.12 %ID/g
- Biodistribution, Small Intestines (COLO-320 xenografts [5]; 120min p.i.): 1.46 %ID/g
- Biodistribution, Spleen (COLO-320 xenografts [5]; 120min p.i.): 1.67 %ID/g
- Biodistribution, Stomach (COLO-320 xenografts [5]; 120min p.i.): 0.99 %ID/g
- Biodistribution, Tumor (COLO-320 xenografts [5]; 120min p.i.): 3.72 %ID/g
- tumor uptake after in vivo blocking by BCH (LAT1): significantly reduced
- in vitro uptake (PC12 cells): 2.97±0.24 % (incubated dose/million cells)
- in vitro uptake (TGP61 cells): 3.11±0.41%

Source: article PMC6791383, “A side-by-side evaluation of [^18F]FDOPA enantiomers for non-invasive detection of neuroendocrine tumors by positron emission tomography” (Oncotarget, 2019)
